# Test results reported in PubChem BioAssay AID2060496 (Molecular Pharmacology Branch, DTP, NCI, 2025).
# pIC50: −log10 of the molar value.
# Test system: 276233-004-R-J1-PDC complex spheroid viability
# Test: Anticancer human tumor 276233-004-R-J1-PDC patient-derived colon adenocarcinoma cell line growth inhibition [GQUAD]
# Settings: for pIC50: curve of first compound; for viability, T/C: stronger effect = lower value
# Description: DNA G-quadruplex Stabilizer Agents in Combinations in Complex Spheroids
# A high-throughput screen of multi-cell type tumor spheroids was designed to identify active combinations of DNA G-quadruplex stabilizer agents and targeted small molecules. Complex spheroids include a stromal component modeled by human endothelial cells (HUVEC) and fibroblasts modeled by human mesenchymal stem cells (MSCs). The concentration ranges selected for each drug and investigational agent were based upon clinically achievable concentrations if the clinical Cmax of the agent was known.
# Compounds. The drugs and investigational agents: pidnarulex (CX-5461; NSC782164), APTO-253 (NSC789042), BRACO-19 (NSC847499), peposertib (NSC802822), ceralasertib (NSC780249), elimusertib (NSC800525), camonsertib (NSC841442), AZD-1390 (NSC803789), olaparib (NSC753686), talazoparib (NSC767125), ART-558 (NSC835418), sotorasib (NSC818433), MRTX-1133 (NSC836407), SN-38 (NSC673596), topotecan (NSC609699), etoposide (NSC141540), doxorubicin (NSC123127), gemcitabine (NSC613327), 5-fluorouracil (NSC19893), paclitaxel (NSC125973), vemurafenib (NSC761431), panobinostat (NSC761190), R-306465 (JNJ-16241199; NSC773264), adavosertib (NSC754352), TP-3654 (NSC805149), carboplatin (NSC241240), KSQ-4279 (NSC840948), and staurosporine (NSC755774) were obtained from the National Cancer Institute (NCI) Developmental Therapeutics Program Chemical Repository (34). The FDA-approved anticancer drug set is available from the NCI Developmental Therapeutics Program. […] The stock solutions were prepared in dimethyl sulfoxide (DMSO, Sigma-Aldrich, St. Louis, MO, cat. D2650) at 800-fold the tested concentration and stored at -70 degrees C prior to their use. All drugs and investigational agents were tested over a range starting from a high concentration at or near the clinical Cmax and decreasing in half-log increments. If the clinical Cmax for an agent had not been determined, the highest concentration tested was 10 microM.
# 2.3 Cell Culture. All cells were maintained in an incubator at 37 degrees C and 5% CO2 with 95% humidity. The PDC lines were cultured according to standard operating procedures established by the NCI PDMR. All PDCs were thawed and cultured in Matrigel-coated flasks prepared with a working solution of 1X Ham's F-12 nutrient mix, without supplementation (Invitrogen, cat. 11765054), 100 U/mL penicillin-streptomycin (Invitrogen, cat. 15140122), and 2.5% Matrigel (Corning Inc., cat. 354248) for the first three passages. The 857933-349-R-J2-PDC line was cultured in 6C/Colon 1B media, which includes advanced DMEM/F-12 (Thermo Fisher Scientific, cat. 12634028), 10 mM HEPES (Thermo Fisher Scientific, cat. 15630080), 1X GlutaMAX supplement (Thermo Fisher Scientific, cat. 35050061), 0.1 mg/mL primocin (InvivoGen, cat. ant-pm-2), 10% defined fetal bovine serum, heat inactivated (HyClone Laboratories Inc., cat. SH30070.03HI), 50% L-WRN conditioned media (ATCC, cat. CRL-3276), 1.25 mM N-Acetyl-L-cysteine (Sigma-Aldrich, cat. A9165), 10 mM nicotinamide (Sigma-Aldrich, cat. N0636), 1X B-27 supplement (Thermo Fisher Scientific, cat. 17504044), 1X N-2 supplement (Thermo Fisher Scientific, cat. 17502048), 10 microM Y-27632 dihydrochloride (Tocris Bioscience, cat. 1254), and 50 ng/mL human EGF recombinant protein (Thermo Fisher Scientific, cat. PHG0311). The 485176-168-R4-J1-PDC line was cultured in Panc media, which includes all 6C/Colon 1B media components plus 100 ng/mL human FGF-10 (Thermo Fisher Scientific, cat. 100-26), 500 nM SB-431542 (Selleckchem, cat. S1067), and gastrin (Tocris, cat. 3006).
# […]
# [1] = second compound 0.0316 µM, first compound 0.0316 µM
# [2] = second compound 0.0316 µM, first compound 0.1 µM
# [3] = second compound 0.0316 µM, first compound 0.316 µM
# [4] = second compound 0.0316 µM, first compound 1 µM
# [5] = second compound 0.0316 µM, first compound 3.16 µM
# [6] = second compound 0.0316 µM, first compound 10 µM
# [7] = second compound 0.1 µM, first compound 0.0316 µM
# [8] = second compound 0.1 µM, first compound 0.1 µM
# [9] = second compound 0.1 µM, first compound 0.316 µM
# [10] = second compound 0.1 µM, first compound 1 µM
# [11] = second compound 0.1 µM, first compound 3.16 µM
# [12] = second compound 0.1 µM, first compound 10 µM
# [13] = second compound 0.316 µM, first compound 0.0316 µM
# [14] = second compound 0.316 µM, first compound 0.1 µM
# [15] = second compound 0.316 µM, first compound 0.316 µM
# [16] = second compound 0.316 µM, first compound 1 µM
# [17] = second compound 0.316 µM, first compound 3.16 µM
# [18] = second compound 0.316 µM, first compound 10 µM
# [19] = second compound 1 µM, first compound 0.0316 µM
# [20] = second compound 1 µM, first compound 0.1 µM
# [21] = second compound 1 µM, first compound 0.316 µM
# [22] = second compound 1 µM, first compound 1 µM
# [23] = second compound 1 µM, first compound 3.16 µM
# [24] = second compound 1 µM, first compound 10 µM
# [25] = second compound 3.16 µM, first compound 0.0316 µM
# [26] = second compound 3.16 µM, first compound 0.1 µM
# [27] = second compound 3.16 µM, first compound 0.316 µM
# [28] = second compound 3.16 µM, first compound 1 µM
# [29] = second compound 3.16 µM, first compound 3.16 µM
# [30] = second compound 3.16 µM, first compound 10 µM
# [31] = second compound 10 µM, first compound 0.0316 µM
# [32] = second compound 10 µM, first compound 0.1 µM
# [33] = second compound 10 µM, first compound 0.316 µM
# [34] = second compound 10 µM, first compound 1 µM
# [35] = second compound 10 µM, first compound 3.16 µM
# [36] = second compound 10 µM, first compound 10 µM
# 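Further: spheroids exposed to drugs for seven days.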
# 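Wherever viability, T/C is given: 100% = DMSO vehicle control viability.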
compound,measurement,setting,value
CC1COCCN1c1cc(-c2ccnn2C)c2ccnc(-c3ccn[nH]3)c2n1 (centres undefined) + CN(C)c1ccc(Nc2c3ccc(NC(=O)CCN4CCCC4)cc3nc3cc(NC(=O)CCN4CCCC4)ccc23)cc1,pIC50,second compound 0.0316 µM,5.15
same,pIC50,second compound 0.1 µM,5.21
same,pIC50,second compound 0.316 µM,6.29
same,pIC50,second compound 1 µM,6.96
same,pIC50,second compound 3.16 µM,6.84
same,pIC50,second compound 10 µM,> 7.50
same,"viability, T/C",[1],83.7%
same,"viability, T/C",[2],77.8%
same,"viability, T/C",[3],74.8%
same,"viability, T/C",[4],73.1%
same,"viability, T/C",[5],55%
same,"viability, T/C",[6],47.9%
same,"viability, T/C",[7],80.4%
same,"viability, T/C",[8],70%
same,"viability, T/C",[9],76.6%
same,"viability, T/C",[10],69.9%
same,"viability, T/C",[11],56.3%
same,"viability, T/C",[12],44.1%
same,"viability, T/C",[13],77.9%
same,"viability, T/C",[14],61.6%
same,"viability, T/C",[15],51.6%
same,"viability, T/C",[16],52.5%
same,"viability, T/C",[17],35.3%
same,"viability, T/C",[18],40.3%
same,"viability, T/C",[19],52.9%
same,"viability, T/C",[20],54.1%
same,"viability, T/C",[21],44.7%
same,"viability, T/C",[22],40.5%
same,"viability, T/C",[23],38.2%
same,"viability, T/C",[24],34.4%
same,"viability, T/C",[25],58.5%
same,"viability, T/C",[26],56%
same,"viability, T/C",[27],42.6%
same,"viability, T/C",[28],40.5%
same,"viability, T/C",[29],40.4%
same,"viability, T/C",[30],35.5%
same,"viability, T/C",[31],46.2%
same,"viability, T/C",[32],40.1%
same,"viability, T/C",[33],33.8%
same,"viability, T/C",[34],32.6%
same,"viability, T/C",[35],39.8%
same,"viability, T/C",[36],27.8%
CC1COCCN1c1cc(C2(S(C)(=N)=O)CC2)nc(-c2ccnc3[nH]ccc23)n1 (centres undefined) + CN(C)c1ccc(Nc2c3ccc(NC(=O)CCN4CCCC4)cc3nc3cc(NC(=O)CCN4CCCC4)ccc23)cc1,pIC50,second compound 0.0316 µM,< 5.00
same,pIC50,second compound 0.1 µM,< 5.00
same,pIC50,second compound 0.316 µM,5.40
same,pIC50,second compound 1 µM,5.71
same,pIC50,second compound 3.16 µM,5.50
same,pIC50,second compound 10 µM,> 7.50
same,"viability, T/C",[1],97.8%
same,"viability, T/C",[2],91%
same,"viability, T/C",[3],89.8%
same,"viability, T/C",[4],81.3%
same,"viability, T/C",[5],66.7%
same,"viability, T/C",[6],67.4%
same,"viability, T/C",[7],95.1%
same,"viability, T/C",[8],84.5%
same,"viability, T/C",[9],75.2%
same,"viability, T/C",[10],65.5%
same,"viability, T/C",[11],74.6%
same,"viability, T/C",[12],66.9%
same,"viability, T/C",[13],74.5%
same,"viability, T/C",[14],75.7%
same,"viability, T/C",[15],47.8%
same,"viability, T/C",[16],64%
same,"viability, T/C",[17],59%
same,"viability, T/C",[18],39.8%
same,"viability, T/C",[19],65.8%
same,"viability, T/C",[20],47.6%
same,"viability, T/C",[21],59.5%
same,"viability, T/C",[22],52.9%
same,"viability, T/C",[23],50.1%
same,"viability, T/C",[24],43.9%
same,"viability, T/C",[25],58.4%
same,"viability, T/C",[26],61.5%
same,"viability, T/C",[27],63.1%
same,"viability, T/C",[28],46.4%
same,"viability, T/C",[29],52.7%
same,"viability, T/C",[30],55.6%
same,"viability, T/C",[31],36.8%
same,"viability, T/C",[32],45.5%
same,"viability, T/C",[33],33.7%
same,"viability, T/C",[34],52.5%
same,"viability, T/C",[35],37.2%
same,"viability, T/C",[36],71.4%
